Source: ChEMBL document CHEMBL4602694, “Suppression of Drug-Resistant Non-Small-Cell Lung Cancer with Inhibitors Targeting Minichromosomal Maintenance Protein” (J Med Chem, 2020)
Calls of active or inactive are those of the source. The rule behind the calls is not given here.

Tests used:
[1] = tested on: CL1-0; experiment: Antiproliferative activity against human CL1-0 cells assessed as reduction in cell viability incubated for 72 hrs by SRB assay; format: functional, cell-based; details: CL1-0, 72 h
[2] = tested on: DNA replication licensing factor MCM2 (Homo sapiens), P49736 [Q341A]; experiment: Induction of ubiquitination of FLAG-tagged MCM2 Q341A mutant (unknown origin) expressed in human 293T cells incubated for 4 hrs by magnetic beads technique based immunoblot analysis; format: cell-based; details: HEK-293T
Sequence of DNA replication licensing factor MCM2 (Homo sapiens), P49736 [Q341A] (P49736 whole entry Q341A): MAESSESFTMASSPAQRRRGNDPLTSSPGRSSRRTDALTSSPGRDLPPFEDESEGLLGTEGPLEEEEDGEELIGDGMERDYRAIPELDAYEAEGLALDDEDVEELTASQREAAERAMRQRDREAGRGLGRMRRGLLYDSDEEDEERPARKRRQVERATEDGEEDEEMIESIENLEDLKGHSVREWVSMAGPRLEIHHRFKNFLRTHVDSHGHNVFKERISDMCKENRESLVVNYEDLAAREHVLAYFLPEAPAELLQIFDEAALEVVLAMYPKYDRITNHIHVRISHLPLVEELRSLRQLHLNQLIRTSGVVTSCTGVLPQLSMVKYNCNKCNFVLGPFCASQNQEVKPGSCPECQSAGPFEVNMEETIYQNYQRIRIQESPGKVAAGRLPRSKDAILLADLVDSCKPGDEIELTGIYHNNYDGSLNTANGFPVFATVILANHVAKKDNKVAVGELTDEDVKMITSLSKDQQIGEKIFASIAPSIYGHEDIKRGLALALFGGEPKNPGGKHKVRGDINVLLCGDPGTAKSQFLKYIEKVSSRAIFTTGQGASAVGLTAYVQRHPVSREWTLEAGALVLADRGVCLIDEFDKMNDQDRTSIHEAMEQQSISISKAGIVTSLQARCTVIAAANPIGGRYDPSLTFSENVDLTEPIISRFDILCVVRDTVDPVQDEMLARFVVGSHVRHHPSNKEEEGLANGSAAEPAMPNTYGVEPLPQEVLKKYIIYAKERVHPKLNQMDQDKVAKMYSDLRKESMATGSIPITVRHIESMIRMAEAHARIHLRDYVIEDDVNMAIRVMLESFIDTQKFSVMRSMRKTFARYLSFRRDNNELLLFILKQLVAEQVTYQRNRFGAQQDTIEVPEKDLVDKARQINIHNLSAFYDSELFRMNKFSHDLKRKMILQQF

[3] = target: DNA replication licensing factor MCM7 (Homo sapiens) (UniProt P33993); experiment: Induction of ubiquitination of MCM7 in human NCI-H1975 cells at 140 nM in presence of MG132 incubated for 48 hrs followed by MG132 addition and measured after 12 hrs by immunoblot analysis; format: cell-based
Sequence of DNA replication licensing factor MCM7 (Homo sapiens) (P33993 whole entry): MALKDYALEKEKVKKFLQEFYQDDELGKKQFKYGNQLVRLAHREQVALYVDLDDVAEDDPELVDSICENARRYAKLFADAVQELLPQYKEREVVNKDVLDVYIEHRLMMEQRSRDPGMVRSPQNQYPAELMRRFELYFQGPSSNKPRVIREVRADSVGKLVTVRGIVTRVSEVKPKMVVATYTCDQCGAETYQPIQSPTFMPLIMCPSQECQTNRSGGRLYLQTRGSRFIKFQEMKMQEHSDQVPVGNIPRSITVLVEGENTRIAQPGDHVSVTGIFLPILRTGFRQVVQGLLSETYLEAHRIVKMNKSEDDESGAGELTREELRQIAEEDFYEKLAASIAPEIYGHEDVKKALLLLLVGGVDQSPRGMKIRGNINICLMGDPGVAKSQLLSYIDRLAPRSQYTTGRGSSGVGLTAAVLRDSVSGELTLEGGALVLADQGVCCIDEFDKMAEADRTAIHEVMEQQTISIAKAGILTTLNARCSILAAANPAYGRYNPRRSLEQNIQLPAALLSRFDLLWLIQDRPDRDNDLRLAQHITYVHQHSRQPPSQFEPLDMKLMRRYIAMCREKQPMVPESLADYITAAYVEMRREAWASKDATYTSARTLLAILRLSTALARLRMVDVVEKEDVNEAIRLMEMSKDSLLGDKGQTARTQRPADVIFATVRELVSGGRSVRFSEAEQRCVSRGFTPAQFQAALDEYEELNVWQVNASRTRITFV

[4] = target: DNA replication licensing factor MCM2 (Homo sapiens) (UniProt P49736); experiment: Induction of ubiquitination of MCM2 in human NCI-H1975 cells incubated for 72 hrs by immunoblot analysis (reference value: 1); format: cell-based
Sequence of DNA replication licensing factor MCM2 (Homo sapiens) (P49736 whole entry): as the sequence (P49736 whole entry Q341A) above, with A341Q counted along it

[5] = tested on: NCI-H1975; experiment: Cell cycle arrest in human NCI-H1975 cells assessed as BrdU positive cells at 140 nM incubated for 48 hrs by BrdUrd incorporation assay (reference value: 34 +/- 5.6 %); format: functional
[6] = target: DNA replication licensing factor MCM2 (Homo sapiens) (UniProt P49736); experiment: Induction of ubiquitination of MCM2 in human NCI-H1975 cells in presence of MG132 incubated for 48 hrs followed by MG132 addition and measured after 12 hrs by immunoblot analysis (reference value: 1.4); format: cell-based
[7] = tested on: DNA replication licensing factor MCM2 (Homo sapiens), P49736 [Q341A]; experiment: Induction of ubiquitination of FLAG-tagged MCM2 Q341A mutant (unknown origin) expressed in human NCI-H1975 cells incubated for 24 hrs by magnetic beads technique based immunoblot analysis; format: cell-based
[8] = target: T1, DNA replication licensing factor MCM4 (Homo sapiens) (UniProt P33991); experiment: Induction of ubiquitination of MCM4 in human NCI-H1975 cells incubated for 24 hrs by immunoblot analysis (reference value: 1); format: cell-based
T1 sequence (whole entry): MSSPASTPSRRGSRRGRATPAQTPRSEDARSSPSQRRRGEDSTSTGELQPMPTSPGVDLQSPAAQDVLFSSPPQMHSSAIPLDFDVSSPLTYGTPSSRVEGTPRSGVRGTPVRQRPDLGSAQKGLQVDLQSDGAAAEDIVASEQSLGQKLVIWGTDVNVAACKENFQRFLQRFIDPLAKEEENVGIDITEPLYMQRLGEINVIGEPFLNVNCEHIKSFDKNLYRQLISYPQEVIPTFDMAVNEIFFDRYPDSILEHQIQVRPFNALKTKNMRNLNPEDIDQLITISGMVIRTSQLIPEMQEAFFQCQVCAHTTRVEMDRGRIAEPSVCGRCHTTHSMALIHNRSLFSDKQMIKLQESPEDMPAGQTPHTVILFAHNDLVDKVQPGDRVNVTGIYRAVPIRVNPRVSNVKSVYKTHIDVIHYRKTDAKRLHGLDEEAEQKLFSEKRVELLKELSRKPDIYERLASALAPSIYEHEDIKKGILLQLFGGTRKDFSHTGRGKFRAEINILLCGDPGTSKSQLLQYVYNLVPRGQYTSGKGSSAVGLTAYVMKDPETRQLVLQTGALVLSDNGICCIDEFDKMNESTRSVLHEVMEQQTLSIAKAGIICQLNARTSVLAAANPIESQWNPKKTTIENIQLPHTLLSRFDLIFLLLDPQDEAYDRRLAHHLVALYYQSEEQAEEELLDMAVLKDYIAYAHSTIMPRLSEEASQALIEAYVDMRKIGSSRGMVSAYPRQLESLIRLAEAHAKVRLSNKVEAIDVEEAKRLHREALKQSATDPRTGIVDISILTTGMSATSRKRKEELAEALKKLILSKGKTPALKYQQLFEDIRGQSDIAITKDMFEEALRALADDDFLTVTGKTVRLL

[9] = tested on: NCI-H1975; experiment: Cell cycle arrest in human NCI-H1975 cells assessed as accumulation in G1/S phase at 140 nM incubated for 48 hrs by DAPI staining based immunofluorescence microscopy; format: functional
[10] = Toxicity in athymic nude BALB/c mouse xenografted with human NCI-H1975 cells assessed as effect on liver at 1 or 4 mg/kg, ip administered for 4 weeks; format: organism-based; details: in vivo, 672 h
[11] = target: T2, DNA replication licensing factor MCM6 (Homo sapiens) (UniProt Q14566); experiment: Induction of ubiquitination of MCM6 in human NCI-H1975 cells at 140 nM in presence of MG132 incubated for 48 hrs followed by MG132 addition and measured after 12 hrs by immunoblot analysis; format: cell-based
T2 sequence (whole entry): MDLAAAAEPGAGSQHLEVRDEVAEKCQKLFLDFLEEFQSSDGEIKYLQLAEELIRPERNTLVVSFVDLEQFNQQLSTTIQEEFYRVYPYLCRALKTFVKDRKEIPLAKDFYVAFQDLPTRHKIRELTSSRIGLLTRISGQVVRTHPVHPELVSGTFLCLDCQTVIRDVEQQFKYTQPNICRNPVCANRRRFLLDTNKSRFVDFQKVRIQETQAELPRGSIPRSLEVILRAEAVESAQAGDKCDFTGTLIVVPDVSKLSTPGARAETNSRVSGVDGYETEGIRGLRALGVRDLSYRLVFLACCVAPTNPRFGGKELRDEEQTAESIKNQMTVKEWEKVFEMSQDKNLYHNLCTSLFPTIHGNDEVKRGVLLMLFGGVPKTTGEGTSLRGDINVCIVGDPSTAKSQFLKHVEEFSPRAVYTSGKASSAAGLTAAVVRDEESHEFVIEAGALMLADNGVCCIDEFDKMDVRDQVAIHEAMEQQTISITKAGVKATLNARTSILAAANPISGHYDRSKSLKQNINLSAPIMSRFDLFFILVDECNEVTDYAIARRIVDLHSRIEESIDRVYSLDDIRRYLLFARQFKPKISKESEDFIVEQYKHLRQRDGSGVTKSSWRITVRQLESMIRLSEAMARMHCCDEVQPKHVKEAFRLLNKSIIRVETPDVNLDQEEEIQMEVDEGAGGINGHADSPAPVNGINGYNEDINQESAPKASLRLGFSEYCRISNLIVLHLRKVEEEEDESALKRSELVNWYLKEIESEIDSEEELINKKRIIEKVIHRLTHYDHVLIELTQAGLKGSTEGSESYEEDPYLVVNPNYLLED

[12] = target: DNA replication licensing factor MCM2 (Homo sapiens) (UniProt P49736); experiment: Induction of ubiquitination of FLAG-tagged MCM2 in human 293T cells incubated for 4 hrs by magnetic beads technique based immunoblot analysis; format: cell-based; details: HEK-293T
[13] = target: T2, DNA replication licensing factor MCM6 (Homo sapiens); experiment: Induction of ubiquitination of MCM6 in human NCI-H1975 cells incubated for 24 hrs by immunoblot analysis (reference value: 1); format: cell-based
[14] = target: DNA replication licensing factor MCM2 (Homo sapiens) (UniProt P49736); experiment: Induction of ubiquitination of MCM2 in human NCI-H1975 cells incubated for 24 hrs by immunoblot analysis; format: cell-based
[15] = tested on: NCI-H1975; experiment: Antitumor activity against human NCI-H1975 cells xenografted in athymic nude BALB/c mouse assessed as delay in tumor growth at 1 or 4 mg/kg, ip administered for 4 weeks; format: functional, organism-based
[16] = target: DNA replication licensing factor MCM7 (Homo sapiens) (UniProt P33993); experiment: Induction of ubiquitination of MCM7 in human PC9 cells incubated for 24 hrs by immunoblot analysis; format: cell-based; details: PC-9

## Cc1oc2c(c1C(=O)NCCCn1ccnc1)C(=O)c1ccccc1C2=O
[1]
  IC50: < 100 nM
[2]
  Activity: Active
[3]
  Activity: Active
[4]
  Activity: 0.3
[5]
  Activity: 16%
[6]
  Activity: 1.6
[7]
  Activity: inactive
[8]
  Activity: 0.4
[9]
  Activity: Active
[10]
  Activity: Non-Toxic
[11]
  Activity: Active
[12]
  Activity: Active
[13]
  Activity: 0.5
[14]
  Activity: Dose-dependent effect
[15]
  Activity: Active
[16]
  Activity: Active
